target: T1, SSTR4 (Homo sapiens, UniProt P31391); test: Inhibition of forskolin stimulated cAMP in CHO-K1 cells overexpressing SSTR4; format: cell-based; settings: read-out: SSTR4 Activity pEC50 (converted)
T1 construct: host or cells: CHO-K1
Experimental: Inhibition of Forskolin Stimulated cAMP in Cells Overexpressing SSTR4
This cell-based assay measures the ability of compounds to inhibit forskolin stimulated cAMP in CHO-K1 cells overexpressing SSTR4. CHO-K1 cells overexpressing SSTR4 (CHO-SSTR4) are purchased from DiscoveRx (product code 95-0059C2). The CHO-SSTR4 cells are maintained in F12K media with 10% Fetal Bovine Serum (Hyclone), 1% Pen/Strep (Life Technologies), and 800 μg/mL G418 (Life Technologies). To perform the assay, 3000 cells are plated per well in white 384-well plate (Corning 3570) in 50 μL complete media and the cells are allowed to attach for 16 hours in a 37° C., 5% CO2 incubator. The next day, the culture media is removed from the cells and the cells are washed (added then removed) with Krebs Ringer Buffer (ZenBio, KRB-1000 mL). Test compounds are suspended in DMSO and diluted in stimulation buffer: Krebs Ringer Buffer plus 0.5% BSA (Roche), 300 μM IBMX (Sigma), and 350 nM forskolin (Sigma). The cells are incubated in 10 μL compound/stimulation buffer for 30 minutes at room temperature. Cellular cAMP levels are detected with a HTRF LANCE Ultra cAMP kit (Perkin Elmer, catalog number TRF0264).
The assay is performed in accordance with the manufacturer's instructions. Five μL of diluted Eu-W8044 labeled streptavidin (dilution: 1:50 in cAMP Detection Buffer) is added to each well. Then 5 μL of diluted biotin cAMP (dilution: 1:150 in cAMP Detection Buffer) is added to each well. The plates are covered and allowed to incubate for 60 minutes at room temperature on a shaker. HTRF (665 nm/615 nm) is read on a Perkin Elmer ENVISION plate reader. The pEC50 values are generated using Activity Base for Screening Data Management.

T1 sequence (P31391 whole entry): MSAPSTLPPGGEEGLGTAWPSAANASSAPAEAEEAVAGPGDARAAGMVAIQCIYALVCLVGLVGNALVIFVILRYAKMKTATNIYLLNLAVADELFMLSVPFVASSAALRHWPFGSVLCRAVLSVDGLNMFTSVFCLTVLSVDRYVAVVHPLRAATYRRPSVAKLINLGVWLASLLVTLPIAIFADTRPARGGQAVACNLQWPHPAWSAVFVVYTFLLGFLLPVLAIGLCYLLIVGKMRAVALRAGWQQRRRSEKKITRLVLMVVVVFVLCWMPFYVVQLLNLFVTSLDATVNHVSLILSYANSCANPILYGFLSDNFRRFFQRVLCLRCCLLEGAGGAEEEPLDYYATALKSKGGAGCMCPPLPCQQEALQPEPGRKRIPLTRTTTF

| SMILES | EC50 |
| --- | --- |
| Cc1ccc(OCC(C)(C)NC(=O)C[C@@H]2CCCN2C)nc1 [Example 103, (S)-N-(2-methyl-1-((5-methylpyridin-2-yl)oxy)propan-2-yl)-2-(1-methylpyrrolidin-2-yl)acetamide] | 501 nM |
| CN1CCC[C@H]1CC(=O)NC(C)(C)COc1cc(Cl)c(F)cn1 [Example 105, (S)-N-(1-((4-chloro-5-fluoropyridin-2-yl)oxy)-2-methylpropan-2-yl)-2-(1-methylpyrrolidin-2-yl)acetamide] | 794 nM |
| CN1CCC[C@H]1CC(=O)NC(C)(C)[C@H]1CCc2ccccc2O1 (single isomer, unassigned) [Example 129] | 398 nM |
| CN1CCC[C@H]1CC(=O)NC(C)(C)c1cccc(Cl)c1F [Example 83, (S)-N-(2-(3-chloro-2-fluorophenyl)propan-2-yl)-2-(1-methylpyrrolidin-2-yl)acetamide] | 251 nM |
| CN1CCC[C@@H]1CC(=O)NC(C)(C)COc1ncccc1C1CC1 [Example 108, (R)-N-(1-((3-cyclopropylpyridin-2-yl)oxy)-2-methylpropan-2-yl)-2-(1-methylpyrrolidin-2-yl)acetamide] | 20 nM |
| CN1CCCC1CC(=O)NC(C)(C)c1cccc(Cl)c1 (centres unmarked) [Example 12, N-(2-(3-chlorophenyl)propan-2-yl)-2-(1-methylpyrrolidin-2-yl)acetamide] | 126 nM |
| Cc1ccnc(OCC(C)(C)NC(=O)C[C@@H]2CCCN2C)c1 [Example 102, (S)-N-(2-methyl-1-((4-methylpyridin-2-yl)oxy)propan-2-yl)-2-(1-methylpyrrolidin-2-yl)acetamide] | 631 nM |
| Cc1cccc(C(C)(C)NC(=O)C[C@@H]2CCCN2C)c1F [Example 86, (S)-N-(2-(2-fluoro-3-methylphenyl)propan-2-yl)-2-(1-methylpyrrolidin-2-yl)acetamide] | 251 nM |
| CCOc1cccnc1OCC(C)(C)NC(=O)C[C@H]1CCCN1C [Example 107, (R)-N-(1-((3-ethoxypyridin-2-yl)oxy)-2-methylpropan-2-yl)-2-(1-methylpyrrolidin-2-yl)acetamide] | 200 nM |
| Cc1cccnc1OCC1(NC(=O)CC2CCCCN2C)CC1 (centres unmarked) [Example 120, 2-(1-methylpiperidin-2-yl)-N-(1-(((3-methylpyridin-2-yl)oxy)methyl)cyclopropyl)acetamide] | 251 nM |
| Cc1cccnc1OCC(C)(C)NC(=O)CC1CCCCN1C (centres unmarked) [Example 69, N-(2-methyl-1-((3-methylpyridin-2-yl)oxy)propan-2-yl)-2-(1-methylpiperidin-2-yl)acetamide] | 25.1 nM |
| Cc1c(F)cccc1C(C)(C)NC(=O)[C@@H](C)CN1CCC1 (single isomer, unassigned) [Example 143] | 200 nM |
| CN1CCC[C@H]1CC(=O)NC(C)(C)COc1ncccc1C1CC1 [Example 73, (S)-N-(1-((3-cyclopropylpyridin-2-yl)oxy)-2-methylpropan-2-yl)-2-(1-methylpyrrolidin-2-yl)acetamide] | 39.8 nM |
| CC[C@H](CN1CCC1)C(=O)NC(C)(C)c1ccccc1F (single isomer, unassigned) [Example 199] | > 10000 nM |
| CN1CCC[C@H]1CC(=O)NC(C)(C)COc1ncccc1C(F)F [Example 85] | 200 nM |
| Cc1cccnc1OCC1(NC(=O)C[C@@H]2CCCN2C)CC1 [Example 54, (S)-N-(1-(((3-methylpyridin-2-yl)oxy)methyl)cyclopropyl)-2-(1-methylpyrrolidin-2-yl)acetamide] | 251 nM |
| COc1ccccc1CC1(NC(=O)CC2CCCCN2C)CC1 (centres unmarked) [Example 74, N-(1-(2-methoxybenzyl)cyclopropyl)-2-(1-methylpiperidin-2-yl)acetamide] | 31.6 nM |
| CCN1CCCC1CC(=O)NC1(COc2ncccc2C)CCCC1 (centres unmarked) [Example 65, 2-(1-ethylpyrrolidin-2-yl)-N-(1-(((3-methylpyridin-2-yl)oxy)methyl)cyclopentyl)acetamide] | 251 nM |
| CN1CCCCC1CC(=O)NC(C)(C)c1nccc2c1cnn2C (centres unmarked) [Example 26, N-(2-(1-methyl-1H-pyrazolo[4,3-c]pyridin-4-yl)propan-2-yl)-2-(1-methylpiperidin-2-yl)acetamide] | 2510 nM |
| COc1c(F)cccc1C(C)(C)NC(=O)C[C@@H]1CCCN1C [Example 114, (S)-N-(2-(3-fluoro-2-methoxyphenyl)propan-2-yl)-2-(1-methylpyrrolidin-2-yl)acetamide] | 251 nM |
| Cc1cnc(OCC(C)(C)NC(=O)C[C@@H]2CCCN2C)c(Cl)c1 [Example 124, (S)-N-(1-((3-chloro-5-methylpyridin-2-yl)oxy)-2-methylpropan-2-yl)-2-(1-methylpyrrolidin-2-yl)acetamide] | 39.8 nM |
| CN1CCC[C@@H]1CC(=O)NC(C)(C)[C@H]1CCc2ccccc2O1 (single isomer, unassigned) [Example 130] | 316 nM |

More lines, now with the values ahead:

| EC50 | SMILES |
| --- | --- |
| 158 nM | C[C@H](NC(=O)CC1CCCCN1C)c1ccc(F)cc1 (stereo partly drawn) [Example 61, N-((S)-1-(4-fluorophenyl)ethyl)-2-(1-methylpiperidin-2-yl)acetamide] |
| 100 nM | CN1CCCCC1CC(=O)NC(C)(C)COc1ncccc1C(F)(F)F (centres unmarked) [Example 29, N-(2-methyl-1-((3-(trifluoromethyl)pyridin-2-yl)oxy)propan-2-yl)-2-(1-methylpiperidin-2-yl)acetamide] |
| 79.4 nM | CC[C@@H](CN1CCC1)C(=O)NC(C)(C)c1cccc(F)c1 (single isomer, unassigned) [Example 185] |
| 79.4 nM | COc1c(C)cccc1C(C)(C)NC(=O)C[C@@H]1CCCN1C [Example 116, (S)-N-(2-(2-methoxy-3-methylphenyl)propan-2-yl)-2-(1-methylpyrrolidin-2-yl)acetamide] |
| 631 nM | Cc1cccnc1OCC1(NC(=O)C[C@H]2CCCN2C)CC1 [Example 121, (R)-N-(1-(((3-methylpyridin-2-yl)oxy)methyl)cyclopropyl)-2-(1-methylpyrrolidin-2-yl)acetamide] |
| 200 nM | C[C@H](CN1CCC1)C(=O)NC(C)(C)c1ccccc1Cl (single isomer, unassigned) [Example 133] |
| 63.1 nM | CC(C)(COc1ncccc1C(F)(F)F)NC(=O)C[C@@H]1CCCN1C1CC1 [Example 53, (S)-2-(1-cyclopropylpyrrolidin-2-yl)-N-(2-methyl-1-((3-(trifluoromethyl)pyridin-2-yl)oxy)propan-2-yl)acetamide] |
| 126 nM | CN1CCC[C@H]1CC(=O)NC(C)(C)COc1nccc2occc12 [Example 125, (S)-N-(1-(furo[3,2-c]pyridin-4-yloxy)-2-methylpropan-2-yl)-2-(1-methylpyrrolidin-2-yl)acetamide] |
| 631 nM | CCOc1cccnc1OCC(C)(C)NC(=O)C[C@@H]1CCCN1C [Example 109, (S)-N-(1-((3-ethoxypyridin-2-yl)oxy)-2-methylpropan-2-yl)-2-(1-methylpyrrolidin-2-yl)acetamide] |
| 39.8 nM | CC(C)(COc1ncccc1C(F)(F)F)NC(=O)C[C@H]1CCCN1CCF [Example 58, (R)-2-(1-(2-fluoroethyl)pyrrolidin-2-yl)-N-(2-methyl-1-((3-(trifluoromethyl)pyridin-2-yl)oxy)propan-2-yl)acetamide] |
| 1000 nM | C[C@H](CN1CCC1)C(=O)NC(C)(C)c1cccc(F)c1 (single isomer, unassigned) [Example 152] |
| 1000 nM | CN1CCC(F)(F)C1CC(=O)NC(C)(C)c1nccc2ccccc12 (centres unmarked) [Example 97, 2-(3,3-difluoro-1-methylpyrrolidin-2-yl)-N-(2-(isoquinolin-1-yl)propan-2-yl)acetamide] |
| 158 nM | Cc1cccc2c(C(C)(C)NC(=O)CC3N(C)CCC3(F)F)nccc12 (centres unmarked) [Example 98, 2-(3,3-difluoro-1-methylpyrrolidin-2-yl)-N-(2-(5-methylisoquinolin-1-yl)propan-2-yl)acetamide] |
| 100 nM | Cc1cccc(C(C)(C)NC(=O)[C@H](C)CN2CCC2)c1Cl (single isomer, unassigned) [Example 144] |
| > 5010 nM | O=C(CCN1CCC1)N[C@@H](c1cc(F)ccc1F)C(F)F (single isomer, unassigned) [Example 168] |
| 79.4 nM | COc1c(Cl)cccc1C(C)(C)NC(=O)C[C@H]1CCCN1C [Example 113, (R)-N-(2-(3-chloro-2-methoxyphenyl)propan-2-yl)-2-(1-methylpyrrolidin-2-yl)acetamide] |
| 2510 nM | C[C@@H](CN1CCC1)C(=O)NC(C)(C)c1ccccc1F (single isomer, unassigned) [Example 157] |
| 501 nM | C[C@H](NC(=O)C[C@H]1CCCN1C)c1ccc(Cl)cc1 [Example 36, N-((S)-1-(4-chlorophenyl)ethyl)-2-((R)-1-methylpyrrolidin-2-yl)acetamide] |
| 398 nM | Cc1cccc(CC2(NC(=O)C[C@@H]3CCCN3C)CC2)c1 [Example 81, (S)-N-(1-(3-methylbenzyl)cyclopropyl)-2-(1-methylpyrrolidin-2-yl)acetamide] |
